Experimental data taken from article PMC6927504, “Screening of House Dust from Chinese Homes for Chemicals with Liver X Receptors Binding Activities and Characterization of Atherosclerotic Activity Using an in Vitro Macrophage Cell Line and ApoE^−/− Mice” (Environmental Health Perspectives, 2019).

Legend:
human LXRβ = target: T1, human LXRβ (Homo sapiens, UniProt P55055); assay: cell-based
T1 sequence (P55055 219-460): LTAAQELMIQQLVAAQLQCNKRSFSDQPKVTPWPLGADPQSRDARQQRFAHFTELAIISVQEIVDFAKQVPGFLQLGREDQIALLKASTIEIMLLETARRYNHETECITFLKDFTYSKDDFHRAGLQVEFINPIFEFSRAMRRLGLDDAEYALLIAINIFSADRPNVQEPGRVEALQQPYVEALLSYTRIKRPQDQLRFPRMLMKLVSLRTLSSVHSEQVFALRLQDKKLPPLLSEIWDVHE

[1] = system: mouse peritoneal macrophages; assay: Foam cell formation in peritoneal macrophages isolated from exposed C57BL/6 mice; format: in vivo; details: 200 mg/kg BW for 7 d, p<0.05
Experimental: RAW264.7 cells or mouse peritoneal macrophages were plated in 24-well plates at 6.0×10^4 cells/well and grown overnight. Then the medium was removed and fresh DMEM-F12 containing 10% FBS, 20μg/mL oxidized low-density lipoprotein (ox-LDL), and 0.1% DMSO (control; n=3 ) or TPHP at the concentration of 1–20,000 nM ( n=3 per group) was added. The cells were washed with PBS, followed by fixing in 4% paraformaldehyde for 30 min and staining with boron-dipyrromethene (BODIPY) 493/503 ( 20μg/mL ) and 4′,6-diamidino-2-phenylindole (DAPI; 100 ng/mL ) for 10 min. Foam cell formation was analyzed by high-content microscopy using ImageXpress® Micro XL (Molecular Devices). From each well, 25 image fields were scanned, and MetaXpress® (Molecular Devices) was used to quantify compartmentalized changes in the fluorescence of each cell.
All experiments related to animals were approved by the institutional animal care and use committee of Peking University and followed the guidelines for animal experiments of the university as well as for experimental animals in China. […] Body weight (BW) was measured every week during the dosing period. […] Considering that this study assessed the effects of short-term exposure to TPHP, whereas humans are exposed to TPHP over a lifelong period, the present study used exposure doses that were higher than that of human exposure from house dust. […]

Question: With `O=P(Oc1ccccc1)(Oc1ccccc1)Oc1ccccc1` [TPHP, triphenyl phosphate] as the compound, how does the IC50 (human LXRβ) read?
Answer: 0.762 µM

Question: What about the “Foam cell staining in peritoneal macrophages relative to control” value [1] of the same compound?
Answer: 2.88±0.95 fold
